Data set [1] addresses T1, PPARδ (Homo sapiens, UniProt Q03181).
T1 construct: expressed in transfected cells; host or cells: Cos-7
T1 sequence (Q03181 139-441 limits assumed): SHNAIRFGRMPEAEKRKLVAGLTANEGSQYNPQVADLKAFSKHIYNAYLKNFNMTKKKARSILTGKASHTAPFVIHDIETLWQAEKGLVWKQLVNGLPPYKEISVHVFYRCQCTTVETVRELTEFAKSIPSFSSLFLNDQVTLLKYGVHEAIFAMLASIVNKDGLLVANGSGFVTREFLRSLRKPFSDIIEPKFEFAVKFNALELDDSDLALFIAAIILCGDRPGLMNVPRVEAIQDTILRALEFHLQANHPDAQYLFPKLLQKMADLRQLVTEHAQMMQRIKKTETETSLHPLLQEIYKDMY
Kind of data set: Gal4-PPARδ(LBD) reporter gene agonistic activity assay in Cos-7 cells. The format is cell-based.

A short description of data set [2]: Pharmacokinetic evaluation in mice. The format is in vivo, C57BL/6J mice. To be noted: for AUC(0-inf): read-out: Area under the curve AUC(0-∞); for half-life: read-out: Half-life T1/2 (converted); for Cmax: read-out: Peak concentration Cmax; for Tmax: read-out: Time-to-peak Tmax. From the text: Animals: 6 male C57BL/6J mice, SPF grade, sourced from the animal repository of Shanghai Medicilon research institution.
Grouping: Mice were divided into 2 groups of 3 mice each, one group was an oral administration group and the other group was an intravenous injection administration group. The dose in the oral administration group was 10 mpk, and the dose in the intravenous injection group was 2 mpk.
Experimental method: After the intravenous injection administration group was subjected to administration by injection via the tail vein, approximately 0.03 mL of blood was collected via the orbit at 0.083 h, 0.25 h, 0.5 h, 1 h, 2 h, 4 h, 8 h, and 24 h, and an ethylenediaminetetraacetic acid dipotassium salt was quickly added for anticoagulation and the blood was placed on ice after the blood collection. The mice in the oral administration group were fasted for 12 h before administration and fed 4 h after administration; after oral administration, approximately 0.03 mL of blood was collected via the orbit at 0.25 h, 0.5 h, 1 h, 2 h, 4 h, 6 h, 8 h, and 24 h, and an ethylenediaminetetraacetic acid dipotassium salt was quickly added for anticoagulation and the blood was placed on ice after the blood collection. All samples were centrifuged at 18,000 g for 7 min in a low-temperature centrifuge, and plasma was isolated. The content of the compound in the plasma was determined by LC-MS/MS-18, and relevant pharmacokinetic parameters were calculated from the plasma concentration data at different time points.

For data set [3], the target named is T2, PPARα (Homo sapiens, UniProt Q07869).
T2 construct: hPPARα (279aa-580aa); expressed in transfected cells; host or cells: Cos-7
T2 sequence (Q07869 167-468 limits assumed): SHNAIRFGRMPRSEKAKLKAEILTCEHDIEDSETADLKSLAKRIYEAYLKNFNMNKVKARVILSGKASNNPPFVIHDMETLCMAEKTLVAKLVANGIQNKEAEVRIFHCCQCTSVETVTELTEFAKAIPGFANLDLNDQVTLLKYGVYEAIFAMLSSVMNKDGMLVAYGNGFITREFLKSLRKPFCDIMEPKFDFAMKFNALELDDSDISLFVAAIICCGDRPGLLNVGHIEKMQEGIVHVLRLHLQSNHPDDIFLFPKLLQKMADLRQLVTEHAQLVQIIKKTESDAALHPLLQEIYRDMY
Kind of data set: Gal4-PPARα(LBD) reporter gene agonistic activity assay in Cos-7 cells. The format is cell-based.

The subject of data set [4] is HepG2 cells. Put plainly: Lipid metabolism-associated gene expression of HepG2 cells (qPCR). Format: cell-based, human. To be noted: 8 nM, nM, and 200 nM, 12 h, vs. blank control (FIGS. 1 and 2). The method, then:
HepG2 cells (human hepatoma cells) were cultured in a 6-well cell culture plate and subjected to adherent culture overnight. […] The old medium was discarded and replaced with drug-containing medium of different concentrations (complete medium without the compound for the blank control group). After dosing, the cells were incubated for 12 h. The medium was discarded and total RNA was extracted by the phenol-chloroform method. After reverse transcription, the real-time quantitative fluorescent PCR experiment (RNA extraction, reverse transcription, quantitative PCR reagents were all purchased from Nanjing Vazyme Biotech Co., Ltd.) was performed using ACTB as an internal reference, and the expression of PDK4, ACADVL, and CPT1A, which are important genes in oxidative metabolism of lipids, was detected according to the steps in the product instructions (the primer sequences are shown in Table 7). […] Some other compounds of the present invention also have similar activity.

The subject of data set [5] is THP1 cells. Kind of data set: LPS-induced inflammation-associated gene expression of THP1 cells (qPCR). Format: cell-based, human. To be noted: THP1 monocyte-derived macrophages, 8, 40, and 200 nM, 6 h, qPCR (FIG. 3). On the procedure: THP1 cells (human monocytes) were cultured in a 6-well cell culture plate in a medium containing 100 ng/mL phorbol ester (purchased from MCE) and stimulated for differentiation for 48 h.
The medium was replaced with a fresh complete medium for the blank control group, the medium was replaced with a complete medium containing […] LPS for the LPS group, and the medium was replaced with 8, 40, and 200 nM drug-containing media prepared with a complete medium containing […] LPS for the administration group. After 6 h of treatment, the medium was discarded. Quantitative PCR was performed according to the procedures in Example 207 to detect the expression of IL6 and IL12B, which are inflammatory factors playing an important role in inflammatory response (the primer sequences are shown in Table 8). […] Some other compounds of the present invention also have similar anti-inflammatory activity.

Data set [6] can be described thus: Metabolic stability in human liver microsomes. The format is in vitro ADME. The method, then:
A 500 μM solution of the compound in acetonitrile was prepared and diluted to obtain a 1.5 μM drug working solution with a 0.1 M potassium phosphate solution. The drug working solution was co-incubated with a human liver microsome working solution at a final concentration of 0.75 mg/mL and an NADPH solution (final concentration: 550 μM), and the incubation was terminated by adding an acetonitrile solution at 0 min, 15 min, 30 min, 45 min, and 60 min. The residual amount of the compound that remained in the system at each time point was detected by using LC/MS. The absolute value k of the slope was determined by plotting the natural logarithm of the percentage of the residual amount of the compound with the time, and the calculation was performed according to the formula: T1/2 (half-life)=ln2/k=0.693/k.

Where [7] appears, read: male, C57BL/6J, mouse, plasma, 2 mg/kg, intravenous injection, 2 mpk.
[8] abbreviates: male, C57BL/6J, mouse, plasma, 10 mg/kg, oral administration, 10 mpk.

Read-outs that look alike come from different tables or passages of the source.

Molecule `Cc1cc(Cn2ncn(-c3ccc(C(F)(F)F)cc3)c2=O)cc(C)c1OC(C)(C)C(=O)O` [Compound 57, 2-(2,6-Dimethyl-4-((5-oxo-4-(4-(trifluoromethyl)phenyl)-4,5-dihydro-1H-1,2,4-triazol-1-yl)methyl)phenoxy)-2-methylpropionic acid] returned an EC50 in data set [1] of 2 nM. Further, the “agonistic activity for PPARδ (EC50 level, in words)” value in data set [1] (Cos-7 reporter assay) was “at nanomolar levels”. The “pharmacokinetic properties (in words)” value in data set [2] is listed as “good pharmacokinetic properties”. Also, in data set [2] (setting [7]), the AUC(0-inf) was found to be 4360 ± 522 ng·h/mL, the half-life is 9.53 ± 3.29 h, the Cmax amounted to 7240 ± 269 ng/mL and the Tmax was 0.08 h. Moreover, in data set [2] (setting [8]), the AUC(0-inf) amounted to 18600 ± 2760 ng·h/mL, the half-life is 7.41 ± 2.05 h, the Cmax was found to be 14000 ± 2050 ng/mL and the Tmax amounted to 0.25 h. Further, the bioavailability in data set [2] (male, C57BL/6J, mouse, plasma, 10 mg/kg, oral administration, 10 mpk, read-out: Bioavailability F) was determined as 87.3%. The molecule also had an EC50 in data set [3] (Cos-7 cells, Gal4-PPARα(LBD) reporter, 16 h, 100% = GW7647 10 nM) of 26 nM. The “agonistic activity for PPARα (EC50 level, in words)” value in data set [3] (Cos-7 reporter assay) is given as “at nanomolar levels”. Further, the “expression of PDK4, ACADVL, and CPT1A” value in data set [4] was “improve the expression of PDK4, ACADVL, and CPT1A in a dose-dependent manner with significance”. Moreover, the “LPS-induced expression of IL6 and IL12B” value in data set [5] is “resist LPS-induced up-regulation of IL6 and IL12B of macrophages”. In addition, in data set [6] (human liver microsomes), the “metabolic stability in human liver microsomes (in words)” value is given as “very good metabolic stability in human liver microsomes”. In addition, the half-life in data set [6] (human liver microsomes 0.75 mg/mL, NADPH, 0-60 min) is > 2 h.

The values above are taken from patent US20250188044A1 (HARBIN MEDISAN PHARMACEUTICAL CO., LTD., priority 2021, published 2025).
